Laboratory results reported in patent US20240188613A1, “SWEETENER COMPOSITIONS COMPRISING MOGROSIDES AND USES THEREOF” (Firmenich Incorporated, priority 2021, published 2024).

Key:
Format in all cases: in vivo, human
[1] = Sensory testing for apple drink (panel of volunteers); settings: for Bitterness / Delayed Sweetness / Global Flavor Intensity / Sweetness / Thickness/Body: in-mouth, normalized to Reb M
Protocol: (§1) A panel of volunteers evaluated isomogroside IVE for in-mouth attributes (sweetness, delayed sweetness, sourness, bitterness, global flavor intensity, thickness/body, and astringence) and aftertaste (AT) attribtues (lingering sweetness, overall off-taste intensity, licorice off-tast, bitterness off-taste, and mouth coating) on a 10-point scale. Two replicate sessions were conducted, with a 20 minute break between sessions. There was a 90 second delay between samples within a session. Panelists evaluated all samples in a first session and evaluated the samples again a second time in a second session. Control samples of Rebaudioside M (Reb M) were evaluated during all sessions as a control. Mogroside V was also evaluated and sensory data for mogroside V is provided.
(§2) Data analysis was performed using 2-way analysis of variance (ANOVA) with interaction using Tukey's HSD test. The data was normalized for each attribute according to average scores for Reb M.

[2] = Sensory testing for lemon-lime carbonated soft drink (panel of volunteers)
Protocol: as §1, §2
A panel of volunteers evaluated the isomogroside IVE-containing lemon-lime carbonated soft drink for in-mouth attributes and aftertaste attributes according to the methods described in Example 1 above.

[3] = Sensory testing for sparkling orange beverage (panel of volunteers)
Protocol: as §1, §2
A panel of volunteers evaluated a sparkling orange beverage containing isomogroside IVE for in-mouth attributes and aftertaste attributes according to the methods described in Example 1 above.

[4] = Sensory testing for vanilla milk (panel of volunteers); settings: for Licorice Aftertaste / Lingering Sweetness / Mouth Coating / Overall Off-Taste: aftertaste
Protocol: as §1, §2
A panel of volunteers evaluated vanilla milk containing isomogroside IVE for in-mouth attributes and aftertaste attributes according to the methods described in Example 1 above.

[5] = Additional sensory testing for lemon-flavored (lemon-lime) beverage (panel of flavorists); settings: 600 ppm mogrosides, 0 to 10 scale, letter in parentheses = Duncan's test group
Protocol: (§3) A panel of flavorists at three locations evaluated lemon-lime beverage various mogrosides at a concentration of 600 ppm mogrosides for in-mouth attributes (peak sweetness, upfront sweetness, bitterness, and mouthfeel/thickness) and aftertaste attributes (sweet taste linger), on a 0 to 10 scale. The in-mouth attributes were evaluated while holding the sample in the mouth, while the aftertaste attributes were evaluated after expectoration.

[6] = Additional sensory testing for vanilla milk (panel of flavorists); settings: 400 ppm mogrosides, 0 to 10 scale, letter in parentheses = Duncan's test group
Protocol: as §3, with “vanilla milk containing” for “lemon-lime beverage”, “400” for “600”, “expectoration. The data was analyzed using Duncan's new multiple range test and the scores are provided in the data below in parentheses.” for “expectoration.”

[7] = Expert panelists' comparison of mogrosides with Stevia; settings: "Examples 4 and 5", in words
[8] = 250 ppm (mogroside V 250 mg [sic]), aftertaste, 10-point scale
[9] = 250 ppm (mogroside V 250 mg [sic]), 10-point scale
[10] = 500 ppm (mogroside V 500 mg [sic]), aftertaste, 10-point scale
[11] = 500 ppm (mogroside V 500 mg [sic]), 10-point scale
[12] = same concentration of Reb M, in words
[13] = 600 ppm (mogroside V 600 mg [sic]), aftertaste, 10-point scale, normalized
[14] = 600 ppm (mogroside V 600 mg [sic]), in-mouth, 10-point scale, normalized
[15] = 250 ppm (mogroside V 250 mg [sic]), aftertaste, 10-point scale, normalized
[16] = 250 ppm (mogroside V 250 mg [sic]), in-mouth, 10-point scale, normalized
[17] = 200 ppm (mogroside V 200 mg [sic]), 10-point scale, normalized
[18] = 200 ppm (mogroside V 200 mg [sic]), in-mouth, 10-point scale, normalized
[19] = 400 ppm (mogroside V 400 mg [sic]), 10-point scale, normalized
[20] = 400 ppm (mogroside V 400 mg [sic]), in-mouth, 10-point scale, normalized

## C[C@H](CC[C@@H](O[C@@H]1O[C@H](CO)[C@@H](O)[C@H](O)[C@H]1O[C@@H]1O[C@H](CO)[C@@H](O)[C@H](O)[C@H]1O)C(C)(C)O)[C@@]1(C)CC[C@@]2(C)[C@@H]3CC=C4[C@@H](CC[C@H](O[C@@H]5O[C@H](CO)[C@@H](O[C@@H]6O[C@H](CO)[C@@H](O)[C@H](O)[C@H]6O)[C@H](O)[C@H]5O)C4(C)C)[C@]3(C)[C@H](O)C[C@@]21C [isomogroside IVE]
[1]; [8]
  Bitterness Aftertaste: 1.5
  Licorice Aftertaste: 2.4
  Lingering Sweetness: 3.0
  Overall Off-Taste: 3.2
[1]; [9]
  Bitterness: 1.4
  Delayed Sweetness: 2.1
  Global Flavor Intensity: 3.3
  Sweetness: 3.9
  Thickness/Body: 1.6
[1]; [10]
  Licorice Aftertaste: 2.2
  Lingering Sweetness: 3.4
  Mouth Coating: 2.0
  Overall Off-Taste: 3.1
[1]; [11]
  Bitterness: 1.9
  Delayed Sweetness: 2.6
  Global Flavor Intensity: 3.5
  Sweetness: 4.5
  Thickness/Body: 1.6
[1]; aftertaste, in words
  Overall off-taste compared with mogroside V: lower overall off-taste
[1]; at both 250 ppm and 500 ppm, in words
  Lingering sweetness aftertaste compared with Reb M: significantly improved
[1]; in words
  Bitterness compared with mogroside V: lower bitterness
  Global flavor intensity compared with mogroside V: higher
  Sweetness compared with mogroside V: higher sweetness
  Thickness/body compared with mogroside V: higher thickness/body
[1]; [12]
  Global flavor intensity compared with Reb M: lower global flavor intensity
  Sweetness compared with Reb M: somewhat less sweet
[2]; [13]
  Bitterness Aftertaste: 1.8
  Licorice Aftertaste: 2.9
  Lingering Sweetness: 4.2
  Overall Off-Taste: 3.8
[2]; [14]
  Bitterness: 2.2
  Delayed Sweetness: 3.5
  Global Flavor Intensity: 5.0
  Sweetness: 5.0
[2]; 600 ppm, in words
  Sweetness compared with Reb M: overall lower sweetness
[2]; in words
  Global flavor intensity compared with mogroside V: higher global flavor intensity
  Sweetness compared with mogroside V: comparable sweetness
[3]; [15]
  Licorice Aftertaste: 2.1
  Lingering Sweetness: 3.9
  Mouth Coating: 1.9
  Overall Off-Taste: 3.3
[3]; [16]
  Delayed Sweetness: 3.5
  Sweetness: 4.9
[3]; 250 ppm, in words
  Delayed sweetness compared with Reb M: slightly increased delayed sweetness
  Sweetness compared with Reb M: overall lower sweetness
[4]; [17]
  Licorice Aftertaste: 0.8
  Lingering Sweetness: 2.6
  Mouth Coating: 2.9
  Overall Off-Taste: 2.1
[4]; [18]
  Astringence: 0.5
  Delayed Sweetness: 1.7
  Fattiness: 2.9
  Sourness: 0.5
  Sweetness: 5.1
[4]; [19]
  Licorice Aftertaste: 1.4
  Lingering Sweetness: 3.7
  Mouth Coating: 0.9
  Overall Off-Taste: 2.0
[4]; [20]
  Astringence: 0.7
  Bitterness: 1.0
  Delayed Sweetness: 2.5
  Fattiness: 3.9
  Global Flavor Intensity: 4.6
  Sourness: 0.8
  Sweetness: 6.8
[4]; at 400 ppm, in words
  Bitterness compared with mogroside V: lower bitterness
  Fattiness compared with mogroside V: higher
  Global flavor intensity compared with mogroside V: higher
[4]; at both 200 ppm and 400 ppm, in words
  Sweetness compared with Reb M: increased sweetness
[4]; in words
  Sweetness compared with mogroside V: higher sweetness
[5]; aftertaste after expectoration
  Sweet Linger: 3.429 (c)
[5]; in-mouth
  Bitterness: 1.857 (a)
  Mouthfeel/Thickness: 2.714 (b)
  Peak Sweetness: 4.857 (c)
  Upfront Sweetness: 3.571 (b)
[6]; aftertaste after expectoration
  Sweet Linger: 4.563 (b)
[6]; in-mouth
  Bitterness: 1.313 (ab)
  Mouthfeel/Thickness: 4.125 (b)
  Peak Sweetness: 5.938 (c)
  Upfront Sweetness: 5.125 (b)
[7]
  Bitter aftertaste compared with Stevia: lower bitter aftertaste
  Licorice aftertaste compared with Stevia: lower licorice aftertaste
  Mouthfeel compared with Stevia: better mouthfeel
